{
  "source": "patent US20170027896A1",
  "about": "“METHODS AND COMPOSITIONS FOR THE TREATMENT OF VASCULAR MALFORMATION” (IFOM - FONDAZIONE ISTITUTO FIRC DI ONCOLOGIA MOLECOLARE, priority 2014, published 2017)",
  "key": {"[1]": {"tested_on": "vascular malformations in the retina of CCM3-ECKO mice", "assay": "Retina vascular lesions and vein diameter in CCM3-ECKO mice", "format": "in vivo, mouse", "text": "The CCM3-flox/flox mice were generated at TaconicArtemis (Koeln, Germany). Two P-lox sequences were inserted that flank exons 4 and 5 of the murine CCM3 gene, to produce a loss-of-function mutation after excision by Ore recombinase. These CCM3-flox/flox mice were bred with Cdh5(PAC)-CreERT2 mice (Wang et al, 2010) for tamoxifen-inducible endothelial-cell-specific expression of Ore-recombinase and CCM3 gene recombination. The CCM3-flox/flox-Cdh5(PAC)-CreERT2 mice were further bred with BAT-gal mice (Maretto et al, 2003) to monitor the activation of b-catenin transcription signaling, and with Rosa 26-Enhanced […] Fluorescent Protein (EYFP) (Rosa26EYFP) mice (Srinivas et al, 2001) to monitor the expression of Ore-recombinase through the expression of EYFP. Tamoxifen (Sigma) was dissolved in corn oil and 10% ethanol (at 10 mg/ml), and then diluted 1:5 in corn oil before single intragastric administration to dpn 1-2 pups (35 mg/kg body weight), as described in^14. The control (wild-type) mice included CCM3-flox/flox-Cdh5(PAC)-CreERT2-BAT-gal mice treated with the vehicle used to dissolve the tamoxifen (corn oil plus 2% ethanol), and CCM3^+/+-Cdh5(PAC)-CreERT2-BAT-gal mice treated with tamoxifen.\nBrains and eyes from mice pups were fixed in 3% paraformaldehyde immediately after dissection, and this fixing was continued overnight at 4° C. […]"}, "[2]": {"tested_on": "b-catenin/Tcf4-dependent transcription", "assay": "Top/Fop-Flash assay in CCM3-knockout endothelial line", "format": "cell-based, mouse", "conditions": "48 h", "method": "Drugs were added to confluent cells for 48 h before the indicated assays. The final concentrations used were: […] (all from Sigma-Aldrich). As all of these were dissolved in DMSO, control treatment (vehicle) was 0.1% DMSO final concentration, as for drug treatment. […] This was transfected into the endothelial cells […] using Lipofectamine 2000, according to the manufacturer instructions (Invitrogen). The pCMV plasmid for constitutive expression of b-gal was co-transfected ([…]), for normalization of luciferase expression over transfection efficiency. […] This was co-transfected with the b-gal plasmid, for normalization, as above. The Dual-Light Reporter Gene assay system (Applied Biosystems) for the combined detection of firefly luciferase and b-gal was used. The cell extraction and detection of chemiluminescence (Glomax 96 microplate luminometer; Promega) was carried out according to the manufacture instructions."}, "[3]": {"tested_on": "co-immunoprecipitation complex of b-catenin and VE-cadherin", "assay": "Co-immunoprecipitation and Western blotting of b-catenin and VE-cadherin in CCM3-knockout endothelial line", "format": "cell-based, mouse", "conditions": "association reduced by 35% in vehicle-KO", "method": "(§1) Drugs were added to confluent cells for 48 h before the indicated assays. The final concentrations used were: […] (all from Sigma-Aldrich). As all of these were dissolved in DMSO, control treatment (vehicle) was 0.1% DMSO final concentration, as for drug treatment. Standard procedures were used to extract and analyze the protein content by Western blotting and immunoprecipitation^46. Nuclear fractionation was as described previously^62."}, "[4]": {"tested_on": "CCM3-knockout endothelial cell line", "assay": "Immunostaining of CCM3-knockout endothelial cell line", "format": "cell-based, mouse", "method": "In some experiments, endothelial cell lines from the lungs of CCM3-flox/flox mice (8-10 weeks old) were immortalized in culture through retroviral expression of polyoma middle T gene^60. […] These cells were then maintained in culture for up to 25 passages without detectable changes in the effects of this CCM3 ablation.\nas §1, with “treatment.” for “treatment. Standard procedures were used to extract and analyze the protein content by Western blotting and immunoprecipitation^46. Nuclear fractionation was as described previously^62.”\nCells cultured in vitro were fixed and stained as described previously^46.\nThe following antibodies were used: anti-Pecam (hamster; MAB1398Z, Millipore); anti-b-galactosidase (chicken; ab9361, Abcam); anti-VE-cadherin (rat monoclonal; 550548, BD Biosciences); anti-VE-cadherin (goat; sc-6458, Santa Cruz); anti-active-b-catenin (mouse monoclonal clone 8E7) dephosphorylated on Ser37 and Thr41, Millipore); anti-total-b-catenin (mouse monoclonal; Cell Signaling); anti-S100a4 (rabbit; 07-2274, Millipore); anti-Klf4 (goat; AF3158, R&D); anti-CD44 (rat; 553131, BD Biosciences); anti-ID1 (rabbit; sc-488, Santa Cruz); anti-aSMA (mouse monoclonal; F3777, Sigma); anti-GFP (rabbit; A-6455, Invitrogen); anti-podocalyxin (goat; AF1556, R&D); anti-phospho-histone H3 (rabbit; ab51776, Millipore); anti-CCM3 (rabbit; Eurogentec); anti-p-Smad1 (rabbit; 9516, Cell Signaling); anti-endomucin (rabbit; sc-65495, Santa Cruz); anti-α-tubulin (mouse monoclonal; T9026, Sigma)."}, "CCM3-ECKO mice": {"tested_on": "CCM3-ECKO mice", "assay": "Bleeding and mortality in drug-treated CCM3-ECKO mice", "conditions": "30 mg/kg body weight intragastrically, daily", "method": "Sulindac sulfide (Sigma) and sulindac sulfone (Sigma) were both dissolved in DMSO and further diluted 1:50 in corn oil. They were administered intragastrically, daily (30 mg/kg body weight), starting one day after the induction of recombination. The control mice were treated in parallel with vehicle only (corn oil plus 2% DMSO)."}, "cyclooxygenase": {"tested_on": "cyclooxygenase", "conditions": "reported; cited from earlier work"}},
  "note": "Entries after “also recorded” stand apart in the source; their conditions may differ.",
  "data": [
    {"smiles": "CSc1ccc(/C=C2/C(C)=C(CC(=O)O)c3cc(F)ccc32)cc1", "note": "[sulindac sulfide, (Z)-5-Fluoro-2-methyl-1-[4-(methylthio)benzylidene]indene-3-acetic acid]", "values": [
      {"measurement": "vascular malformations in the retina", "setting": "[1]; CCM3-ECKO mice, dpn 9", "value": "inhibited; also recorded: partially normalized"},
      {"measurement": "diameter of the most internal tract of the retinal veins (mean±SD)", "setting": "[1]; CCM3-ECKO, 30 measurements in 14 retinas, vehicle-ECKO 89.5±7.1 mm", "value": "35 ± 7.8", "unit": "µm"},
      {"measurement": "b-catenin transcriptional activity in Top/Fop Flash reporter assay", "setting": "[2]", "value": "inhibited; also recorded: reduced"},
      {"measurement": "association between b-catenin and VE-cadherin (b-catenin/VE-cadherin ratio)", "setting": "[3]", "value": "restored to the level observed in the wild-type cells"},
      {"measurement": "apical distribution of podocalyxin", "setting": "[4]", "value": "re-establishes the correct apical distribution"},
      {"measurement": "VE-cadherin at cell-cell contacts", "setting": "[4]; 48 h", "value": "more localized to cell-cell contacts"},
      {"measurement": "nuclear accumulation of active b-catenin / distribution to adherens junctions", "setting": "[4]; 48 h", "value": "restored the distribution of active b-catenin to the adherens junctions"},
      {"measurement": "overexpression of progenitor/EndMT marker proteins (Klf4, S100a4, Id1, CD44)", "setting": "[4]; 48 h", "value": "strongly reduced; also recorded: inhibited"},
      {"measurement": "bleeding from vascular lesions or mortality versus vehicle-treated mice", "setting": "CCM3-ECKO mice", "value": "did not observe either increased bleeding from vascular lesions or mortality"},
      {"measurement": "anti-cyclooxygenase activity", "setting": "cyclooxygenase", "value": "inhibits"}
    ]}
  ]
}
